Earlier results in patent US4795645A, “Sustained release tablets of theophylline” (Yissum Research and Development, priority 1986, dated 1989).

Settings: from oral solutions and plain uncoated tablets

In the case of `Cn1c(=O)c2[nH]cnc2n(C)c1=O` [Theophylline, theophylline], the absorption is given as “rapidly, consistently and completely absorbed”.
